# Biological target: PIK3CA (human) (UniProt P42336)
# Experiment: Inhibition of PIK3CA Kinase Activity
# Chain of PIK3CA (human) (P42336 whole entry, looked up): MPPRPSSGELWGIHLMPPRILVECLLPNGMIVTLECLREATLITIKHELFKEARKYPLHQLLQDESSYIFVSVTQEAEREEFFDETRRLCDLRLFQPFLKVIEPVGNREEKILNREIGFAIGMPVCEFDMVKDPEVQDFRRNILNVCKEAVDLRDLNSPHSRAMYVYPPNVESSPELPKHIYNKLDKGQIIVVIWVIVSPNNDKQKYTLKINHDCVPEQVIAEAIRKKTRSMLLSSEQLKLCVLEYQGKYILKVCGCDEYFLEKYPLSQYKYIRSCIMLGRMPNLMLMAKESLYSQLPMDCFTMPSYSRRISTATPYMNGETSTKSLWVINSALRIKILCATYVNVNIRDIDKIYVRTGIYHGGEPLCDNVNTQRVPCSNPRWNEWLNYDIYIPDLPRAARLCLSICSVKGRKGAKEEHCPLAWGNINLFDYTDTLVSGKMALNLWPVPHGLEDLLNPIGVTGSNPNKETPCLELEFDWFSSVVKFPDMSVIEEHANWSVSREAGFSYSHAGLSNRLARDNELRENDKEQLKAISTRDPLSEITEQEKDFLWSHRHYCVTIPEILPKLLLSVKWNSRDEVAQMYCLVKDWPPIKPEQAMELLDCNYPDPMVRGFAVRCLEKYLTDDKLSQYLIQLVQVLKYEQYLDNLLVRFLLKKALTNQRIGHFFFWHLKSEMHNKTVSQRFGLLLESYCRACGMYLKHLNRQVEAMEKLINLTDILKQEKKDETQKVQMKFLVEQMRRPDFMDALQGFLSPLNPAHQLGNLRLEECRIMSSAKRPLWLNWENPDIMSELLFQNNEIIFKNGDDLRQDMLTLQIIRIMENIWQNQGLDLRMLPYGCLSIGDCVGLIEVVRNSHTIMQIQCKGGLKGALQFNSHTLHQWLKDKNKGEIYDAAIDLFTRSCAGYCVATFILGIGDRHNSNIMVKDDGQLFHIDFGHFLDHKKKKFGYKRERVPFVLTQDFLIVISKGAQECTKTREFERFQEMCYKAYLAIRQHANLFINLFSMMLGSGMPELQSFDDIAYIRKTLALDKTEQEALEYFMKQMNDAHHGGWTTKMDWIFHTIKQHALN
row,IC50 [nM],SMILES
1,10 to 50,COc1ccc(-c2ccc3c(c2)CN(c2nc(CN(C)C)nc4c2CC(C)(C)CC4)CCO3)cc1OC
2,50 to 250,Cc1nc2ccc(-c3ccc4c(c3)CN(c3ncnc(C)c3C)CCO4)cc2[nH]1
3,10 to 50,CC[C@H]1CCCc2c(ncnc2N2CCOc3ccc(-c4cnc5nc(C)[nH]c5c4)cc3C2)C1
4,250 to 1000,COc1c(OCc2ccc3ccccc3n2)ccc2c(N3CCOc4ccc(-c5ccc6nc(C)[nH]c6c5)cc4C3)ncnc12
5,250 to 1000,Cc1nc2ccc(-c3ccc4c(c3)CN(c3ncnc5c3CCN(Cc3ccccc3)C5)CCO4)cc2[nH]1
6,10 to 50,Cc1nc2ncc(-c3ccc4c(c3)CN(c3ncnc5c3CCC(C)(c3ccccc3)C5)CCO4)cc2[nH]1 (stereo unspecified)
7,10 to 50,Cc1nc2ccc(-c3ccc4c(c3)CN(c3nc(CN5CC[C@H](F)C5)nc5c3CC(C)(C)CC5)CCO4)cc2[nH]1
8,50 to 250,CCNc1nc2ncc(-c3ccc4c(c3)CN(c3ccncn3)CCO4)cc2[nH]1
9,≤ 10,Nc1nc2ncc(-c3ccc4c(c3)CN(c3ncnc5ccc(Cl)cc35)CCO4)cc2[nH]1
10,50 to 250,Cc1nc2ccc(-c3ccc4c(c3)CN(c3ncnc5c3CCCC5)CCO4)cc2[nH]1
11,50 to 250,Cc1nc2cc(-c3ccc4c(c3)CN(c3nc(CN(C)C)nc(C)c3Cl)CCO4)ccc2[nH]1
12,≤ 10,COc1ccc2c(N3CCOc4ccc(-c5cnc6nc(C)[nH]c6c5)cc4C3)nc(CN(C)C)nc2c1
13,50 to 250,Cc1c(NCCC2CCCN2C)ncnc1N1CCOc2ccc(-c3cnc4nc(C5CC5)[nH]c4c3)cc2C1 (stereo unspecified)
14,≤ 10,Cc1nc(N)nc(N2CCOc3ccc(-c4ccc5[nH]cnc5c4)cc3C2)c1Cc1ccc(F)cc1
15,10 to 50,Cc1nc2ccc(-c3ccc4c(c3)CN(c3ncnc5c(C)cccc35)CCO4)cc2[nH]1
16,50 to 250,CC1=CC(C)(C)Cc2c1ncnc2N1CCOc2ccc(-c3cnc(N)c(S(=O)(=O)N4CC[C@@H](N)C4)c3)cc2C1
17,50 to 250,CC1(C)CCc2ncnc(N3CCOc4ccc(-c5cnc(N)c(S(=O)(=O)NC6CCNCC6)c5)cc4C3)c2C1
18,250 to 1000,c1ccc2c(N3CCOc4ccc(-c5cn[nH]c5)cc4C3)ccnc2c1
19,50 to 250,CC(N)CNS(=O)(=O)c1cc(-c2ccc3c(c2)CN(c2ncnc4c2CC(C)(C)CC4)CCO3)cnc1N (stereo unspecified)
20,50 to 250,Cc1nc2ccc(-c3ccc4c(c3)CN(c3ncnc5cc(Cl)ccc35)CCO4)cc2[nH]1
21,10 to 50,Cc1nc2ccc(-c3ccc4c(c3)CN(c3ncnc(C)c3Cc3cccc(F)c3)CCO4)cc2[nH]1
22,10 to 50,Cc1nc2cc(-c3ccc4c(c3)CN(c3nc(C(C)N)nc5c3CC(C)(C)CC5)CCO4)ccc2[nH]1 (stereo unspecified)

row,IC50 [nM],SMILES
1,≤ 10,Cc1nc2ccc(-c3ccc4c(c3)CN(c3ccnc5cc(F)ccc35)CCO4)cc2[nH]1
2,≤ 10,Cc1nc(CN(C)C)nc(N2CCOc3ccc(-c4cnc5sc(N)nc5c4)cc3C2)c1CC1CC1
3,250 to 1000,CNC(=O)c1ccc(-c2ccc3c(c2)CN(c2ncnc(C)c2Cc2ccc(F)cc2)CCO3)nc1
4,≤ 10,CC1(C)CCc2ncnc(N3CCOc4ccc(-c5cnc(N)c(S(=O)(=O)NCC(O)CN)c5)cc4C3)c2C1 (stereo unspecified)
5,≤ 10,Cc1nc2ccc(-c3ccc4c(c3)CN(c3nc(CNCCF)nc5c3CC(C)(C)CC5)CCO4)cc2[nH]1
6,≤ 10,CC[C@H]1CCc2c(nc(C)nc2N2CCOc3ccc(-c4cnc5nc(C)[nH]c5c4)cc3C2)C1
7,10 to 50,CC1(C)CCc2ncnc(N3CCOc4ccc(-c5cnc(N)c(S(=O)(=O)N6CCCC(O)C6)c5)cc4C3)c2C1 (stereo unspecified)
8,≤ 10,CNCc1nc2c(c(N3CCOc4ccc(-c5cnc6nc(C)[nH]c6c5)cc4C3)n1)CC(C)(C)CC2
9,≤ 10,COC(=O)Nc1nc2ccc(-c3ccc4c(c3)CN(c3nc(CN(C)C)nc5c3CC(C)(C)CC5)CCO4)cc2[nH]1
10,≤ 10,Nc1nc2ncc(-c3ccc4c(c3)CN(c3ncnc5ccc(F)cc35)CCO4)cc2[nH]1
11,250 to 1000,CC1(C)CCc2ncnc(N3CCOc4ccc(-c5cnc(N)nc5)cc4C3)c2C1
12,250 to 1000,Cc1ncnc(N2CCOc3ccc(-c4cnc(N)cn4)cc3C2)c1Cc1ccc(F)cc1
13,10 to 50,CNc1ncnc(N2CCOc3ccc(-c4cnc5nc(C)[nH]c5c4)cc3C2)c1C
14,50 to 250,Nc1ccc(-c2ccc3c(c2)CN(c2ccnc4ccccc24)CCO3)cn1
15,10 to 50,CC1(C)CCc2ncnc(N3CCOc4ccc(-c5cnc(N)c(S(=O)(=O)NCC6CCNCC6)c5)cc4C3)c2C1
16,≤ 10,CC1CCc2c(ncnc2N2CCOc3ccc(-c4cnc5nc(N)[nH]c5c4)cc3C2)C1 (stereo unspecified)
17,250 to 1000,COC1Cc2nc(CN(C)C)nc(N3CCOc4ccc(-c5ccc6scnc6c5)cc4C3)c2CC1(C)C (stereo unspecified)
18,10 to 50,COCc1nc2c(c(N3CCOc4ccc(-c5cnc6[nH]c(C)nc6c5)cc4C3)n1)CC(C)(C)CC2
19,10 to 50,CC1(C)CCc2ncnc(N3CCOc4ccc(-c5cnc(N)c(S(=O)(=O)N6C[C@@H]7C[C@H]6CN7)c5)cc4C3)c2C1
20,250 to 1000,COC(=O)Nc1nc2ccc(-c3ccc4c(c3)CN(c3ncnc5[nH]ccc35)CCO4)cc2[nH]1
21,50 to 250,Cc1c(NC2CCOCC2)ncnc1N1CCOc2ccc(-c3cnc4nc(C5CC5)[nH]c4c3)cc2C1
22,10 to 50,Cc1nc2ncc(-c3ccc4c(c3)CN(c3nc(CNCC(C)C)nc5c3CC(C)(C)CC5)CCO4)cc2[nH]1

row,IC50 [nM],SMILES
1,250 to 1000,Cc1ncnc(N2CCOc3ccc(-c4ccc5nc(N)ncc5c4)cc3C2)c1Cc1ccc(F)cc1
2,10 to 50,Cc1nc2c(c(N3CCOc4ccc(-c5cnc6nc(C)[nH]c6c5)cc4C3)n1)CC(C)(C)CC2
3,250 to 1000,CC1(C)CCc2ncnc(N3CCOc4ccc(-c5cnc(C(N)=O)c(N)c5)cc4C3)c2C1
4,≤ 10,CCNc1nc2ccc(-c3ccc4c(c3)CN(c3ccnc5ccccc35)CCO4)cc2[nH]1
5,10 to 50,COc1cc2c(N3CCOc4ccc(-c5cnc6nc(N)[nH]c6c5)cc4C3)ncnc2cc1Br
6,50 to 250,CN1CCN(S(=O)(=O)c2cc(-c3ccc4c(c3)CN(c3ncnc5c3CC(C)(C)CC5)CCO4)cnc2N)CC1
7,≤ 10,Cc1nc2ccc(-c3ccc4c(c3)CN(c3nc(CN(C)C)nc5c3CC(C)(C)CC5)CCO4)cc2[nH]1
8,10 to 50,COc1c(OCC2CC2)ccc2c(N3CCOc4ccc(-c5ccc6nc(C)[nH]c6c5)cc4C3)ncnc12
9,250 to 1000,CCNc1nc2ccc(-c3ccc4c(c3)CN(c3ccncn3)CCO4)cc2[nH]1
10,10 to 50,CC(C)(O)CNS(=O)(=O)c1cc(-c2ccc3c(c2)CN(c2ncnc4c2CC(C)(C)CC4)CCO3)cnc1N
11,50 to 250,CC1(C)CCc2ncnc(N3CCOc4ccc(-c5cnc(N)c(S(=O)(=O)N6CCC(O)CC6)c5)cc4C3)c2C1
12,10 to 50,CCN(Cc1nc2c(c(N3CCOc4ccc(-c5cnc6nc(C)[nH]c6c5)cc4C3)n1)CC(C)(C)CC2)C(C)C
13,10 to 50,CC1=CC(C)(C)Cc2c1ncnc2N1CCOc2ccc(-c3cnc4nc(C)[nH]c4c3)cc2C1
14,10 to 50,CC(=O)Nc1nc2cc(-c3ccc4c(c3)CN(c3nc(CN(C)C)nc5c3CC(C)(C)CC5)CCO4)cnc2s1
15,10 to 50,Cc1nc(CN(C)C)nc(N2CCOc3ccc(-c4cnc5sc(N)nc5c4)cc3C2)c1Br
16,10 to 50,Cc1nc2cc(-c3ccc4c(c3)CN(c3nc(CN(C)C)ncc3C(C)C)CCO4)ccc2[nH]1
17,50 to 250,CC[C@H]1CCc2c(ncnc2N2CCOc3ccc(-c4cnc5nc([C@@H](C)N)[nH]c5c4)cc3C2)C1
18,≤ 10,Cc1nc(CN(C)C)nc(N2CCOc3ccc(-c4ccc5[nH]c(C(F)F)nc5c4)cc3C2)c1Cc1ccc(F)cc1
19,≤ 10,CC[C@H]1CCc2c(ncnc2N2CCOc3ccc(-c4cnc5nc(N)[nH]c5c4)cc3C2)C1
20,≤ 10,CC1(C)CCc2ncnc(N3CCOc4ccc(-c5cnc(N)c(S(=O)(=O)NCCO)c5)cc4C3)c2C1
21,50 to 250,CC1=Cc2ncnc(N3CCOc4ccc(-c5cnc(N)c(S(=O)(=O)NCC6CCN(C)CC6)c5)cc4C3)c2CC1(C)C
22,250 to 1000,COc1ccc2nc(Cl)nc(N3CCOc4ccc(-c5ccc6nc(C)[nH]c6c5)cc4C3)c2c1
